In patent publication US5789395A, “Method of using tetracycline compounds for inhibition of endogenous nitric oxide production” (The Research Foundation of State University of New York, priority 1996, dated 1998):
Converted amounts (≈) assume the structure as drawn. Where two headings read alike, the source gives them in different places.

Experiments:
collagenase = conditions: cited from earlier work
[1] = test system: iNOS in RAW 264.7 murine macrophage cells; assay: nitrite accumulation in LPS-stimulated RAW 264.7 cells; assay type: cell-based; conditions: for IC50: Mus musculus
Experimental: RAW 264.7 murine macrophage cells (American Type Culture Collection, Rockville, Md.) were incubated with and without doxycycline or minocycline (5-80 μg/mL) for 1-2 h followed by activation through addition of 100 ng/mL of LPS (Sigma Chemical Co., St. Louis, Mo.) to induce iNOS (Stuehr et al. 1991). After 14-20 h of incubation, the medium was used to estimate nitrite accumulation by the modified Griess reaction (Gilliam et al. 1993). The values are represented as μM of nitrite accumulated at a given time interval; n=3. The statistics were derived using unpaired Student's t test. The data represent one of three similar experiments.

iNOS = iNOS activity (L-arginine-to-L-citrulline) in cell-free extracts of cells treated with modulator before LPS; assay type: cell-based, murine
Experimental: Murine macrophage cells (RAW 264.7) were incubated with 20-80 μg/mL doxycycline or minocycline, 10 μM hydrocortisone (Sigma Chemical Co., St. Louis, Mo.), or 75 μM L-NMMA for 1-2 h, followed by addition of LPS at 100 ng/mL and incubation for 16-18 h. Cell-free extracts were prepared at the end of each time period. Specific activity of iNOS was determined in the cell-free extracts by monitoring the conversion of L-[^3 H]-arginine to L-[^3 H]-citrulline as described by Amin et al. (1995b) and Vyas et al. (1996).
Cell-free extracts were prepared as follows: Following induction by incubation with LPS, the cells were pelleted at 4° C. and resuspended in Tris buffer (10 mM, pH 7.4) containing 10 μg/mL each chymostatin, antipain, leupeptin and pepstatin, 1 mM DTT and 1 mM PMSF. Cells were lysed in a Polytron PT 1200 homogenizer (Kinematica AG, Switzerland) after 3 cycles of rapid freeze-thawing. The lysate was centrifuged at 16,000 rpm for 60 min at 4° C., and the supernatants were used as cell-free extracts.
The protein in the extracts was measured by BCA assay reagent using BSA as standard (Smith et al. 1985). The reaction mixture for iNOS assay consists of Tris 50 mM (pH 7.8); BSA 1 mg/mL; DTT 1 mM; CaCl2, 2 mM; FAD 10 μM; BH4 10,μM; L-arginine 30 μM; NADPH 1 mM. The reaction mixture was spiked with 1μL (250 nM) of L-[^3 H]-arginine (Dupont NEN, Boston, Mass.) (1 mCi/mL=37.0 MBq/mL). After 20 min the assays were terminated by heating the reaction mixture at 90° C. for 5 min. Ten microiters (≈100,000 cpm) of the supernatant was spotted on activated AVICEL TLC plates (Analtech, Newark, Del.). The TLC plates were developed in a solvent system consisting of ethanol:water:ammonia (80:16:4). Quantitation of the spot for L-[^3 H]-citrulline was performed by a Bioscan System 200 Imaging Scanner.

dog models of OA = conditions: prophylactic administration; Yu et al. (1992); cited from earlier work
iNOS mRNA = iNOS mRNA expression in LPS-stimulated RAW cells (Northern blot); assay type: cell-based, murine; conditions: Mus musculus, normalized against β-actin; for inhibition at 20 µg/mL: 20 μg/mL; for inhibition at 40 µg/mL: 40 μg/mL; for inhibition at 80 µg/mL: 80 μg/mL
Experimental: Northern blot analysis of the iNOS MRNA expressed by the cells was then carried out to evaluate precisely the effect of iNOS expression in the presence of doxycycline and minocycline. The probes again were the iNOS and β-actin CDNA probes described above.
In this case, total RNA was isolated using TRI Reagent (MRC Inc., Cincinnati, Ohio). […] Briefly, 30 μg of RNA was subjected to electrophoresis in 1% agarose formaldehyde gel. The gel was then transferred via capillary action onto a nylon membrane (Zeta Probe, Bio-Rad Laboratories, Melville, N.Y.). The membrane was hybridized with [^32 P]-dCTP-labeled iNOS CDNA (4 kb SmaI fragment), a kind gift from Dr. James Cunningham (Harvard Medical School, Boston, Mass.). After hybridization, the blot was exposed to Kodak X-ray film (Kodak, Rochester, N.Y.) for 24-48 h with intensifying screens at -70° C. The β-actin probe was purchased from ClonTech (Palo Alto, Calif.) and probed as described above. Quantitation of the intensity of the iNOS/β-actin bands was performed using a phosphoimager (Molecular Dynamics, Sunnyvale, Calif.).

cartilage = conditions: 20-50 μg/mL; Cole et al. 1994; cited from earlier work
133 kD iNOS = assay: iNOS protein expression in LPS-activated RAW 264.7 cells (Western blot); assay type: cell-based, murine
Experimental: RAW 264.7 cells were activated with 100 ng/mL LPS for 16-18 h, with and without doxycycline or minocycline (20-80 μg/mL) or with hydrocortisone (10 μM). Cell-free extracts were prepared as described above. The extract s were analyzed for 133 kD iNOS by Western blotting, using specific anti-iNOS antibodies.
Equal amounts of protein (25-50 μg) estimated by BCA reagent (Pierce, Rockford, Ill.) were loaded onto SDS-PAGE gels and stained to verify the concentrations of various protein fractions by examining the intensities of the protein bands on the gels. Western blot analysis was carried out from the same cell extracts. The Western-blotted membrane was probed with a specific anti-murine iNOS monoclonal antibody (Transduction Laboratories, Lexington, Ky.), as specified by the supplier. The same blot was also probed with an anti-actin antibody generously provided by Dr. James L. Lessard (Children's Hospital Medical Center, Cincinnati, Ohio). The blots were developed using the ECL Western blot system (Amersham, Arlington Heights, Ill.). Quantitation of the bands was performed using a densitometer from Molecular Dynamics (Sunnyvale, Calif.). FIG. 5 is representative.

[2] = test system: gelatinase in UMR 106-01 osteoblastic cell line; conditions: Vernillo et al. 1993; cited from earlier work
[3] = test system: gelatinase in ROS 17/2.8 osteoblastic cell line; conditions: Vernillo et al. 1993; cited from earlier work
[4] = test system: patients with mild and moderate arthritis; conditions: Tilley et al. 1995; cited from earlier work

Compound	concentration at which inhibitory effects on iNOS expression (mRNA, specific activity and nitrite accumulation) reach a plateau [1] [µg/mL]	IC50 to inhibit iNOS activity in cell lysates (iNOS) [µg/mL]	inhibition of iNOS activity (iNOS; 20 μg/mL) [%]	inhibition of iNOS activity (iNOS; 40 μg/mL) [%]	inhibition of iNOS activity (iNOS; 80 μg/mL) [%]	inhibition at 20 µg/mL (iNOS mRNA) [%]	inhibition at 40 µg/mL (iNOS mRNA) [%]	inhibition at 80 µg/mL (iNOS mRNA) [%]	inhibition of iNOS protein expression (133 kD iNOS; 20 μg/mL) [%]	inhibition of iNOS protein expression (133 kD iNOS; 40 μg/mL) [%]	inhibition of iNOS protein expression (133 kD iNOS; 80 μg/mL) [%]	also measured
C[C@H]1c2cccc(O)c2C(O)=C2C(=O)[C@]3(O)C(O)=C(C(N)=O)C(=O)[C@@H](N(C)C)[C@@H]3[C@@H](O)[C@@H]21 [doxycycline]	40 to 80	20 to 30	57	72	85	68	75	79	11	24	65	anti-collagenase activity (collagenase): inhibits collagenase activity via direct effects on the enzyme; IC50 ([1]; RAW264.7, 14 h of incubation, read-out: IC50): 72 µg/mL (≈ 162 µM); IC50 ([1]; RAW264.7, 20 h of incubation, read-out: IC50): 22 µg/mL (≈ 49.5 µM); concentration required to inhibit iNOS-mediated production of NO by >50% ([1]; compared to minocycline, 14 h and 20 h): significantly higher concentrations; severity of OA (dog models of OA): markedly reduced the severity of OA; effect on proteoglycan loss and cell death (cartilage): blocks proteoglycan loss and reduces the cell death associated with proteoglycan loss; IC50, gelatinase activity [2]: > 200 µg/mL; IC50, gelatinase activity [3]: 20 to 30 µg/mL
CN(C)c1ccc(O)c2c1C[C@H]1C[C@H]3[C@H](N(C)C)C(O)=C(C(N)=O)C(=O)[C@@]3(O)C(O)=C1C2=O [minocycline]	40 to 80	20 to 30	45	69	69	39	49	77	14	49	83	IC50 ([1]; RAW264.7, 14 h): 17 µg/mL (≈ 37.2 µM); IC50 ([1]; RAW264.7, 20 h): 12 µg/mL (≈ 26.2 µM); safety and efficacy in arthritis [4]: safe and effective for patients with mild and moderate arthritis
